From US6797712B2, “Substituted amino-furan-2-yl-acetic acid and amino-thien-2-yl-acetic acid derivatives and their use in the treatment of migraine and pain” (Gruenenthal GmbH, priority 2000, dated 2004)
Where a name gives a salt, the structure may show the parent alone.

Molecular target: T1, glycine binding site of the NMDA receptor channel (Rattus norvegicus, UniProt P35439)
T1 construct: from tissue; host or cells: rat brain cortex and hippocampus membrane homogenate (male Wistar rats)
Assay: Receptor binding studies, displacement of (3H)-MDL 105,519 from brain membrane homogenates
Conditions: for Displacement (%, 10 μmol) / inhibition at 10 µM: percentage of bonded radioactive ligand (3H)-MDL 105,519 displaced from specific binding at 10 μM of test substance; for Ki: glycine binding site of the NMDA receptor channel, rat cortex/hippocampus membrane homogenate, 1 nmol/l (3H)-MDL 105,519, from IC50 by Cheng-Prussoff equation; for inhibition at 10 µM: read-out: Displacement (%, 10 μmol)
Procedure: The tests to determine the affinity of the compounds of formula (I) according to the invention for the glycine binding site of the NMDA receptor channel were carried out on brain membrane homogenates (homogenate of cortex and hippocampus area from the brains of male rats, Wistar strain) (B. M. Baron, B. W. Siegel, B. L. Harrison, R. S. Gross, C. Hawes and P. Towers, Journal of Pharmacology and Experimental Therapeutics, (1996), Vol. 279, p. 62).
To that end, cortex and hippocampus from freshly removed rat brains were exposed and homogenized, while cooling with ice, in 5 mmol/l of TRIS acetate buffer, […] of saccharose pH 7.4 (10 ml/g fresh weight) using a Potter homogenizer (Braun/Melsungen; 10 piston strokes at 500 rpm) and then centrifuged for 10 minutes at 1000 g and 4° C. The first supernatant was collected and the sediment was again homogenized, while cooling with ice, with 5 mmol/l of TRIS acetate buffer, 0.32 mol/l of saccharose pH 7.4 (5 ml/g original fresh weight) using the Potter homogenizer (10 piston strokes at 500 rpm) and centrifuged for 10 minutes at 1000 g and 4° C. The resulting supernatant was combined with the supernatant from the first centrifugation and centrifuged for 20 minutes at 17,000 g and 4° C. The supernatant from this centrifugation was discarded and the membrane sediment was taken up in 5 mmol/l of TRIS acetate buffer pH 8.0 (20 ml/g original fresh weight) and homogenized with 10 piston strokes at 500 rpm.
The membrane homogenate was then incubated for one hour at 4° C. and centrifuged for 30 minutes at 50,000 g and 4° C. The supernatant was discarded and the centrifuge tube containing the membrane sediment was closed with Parafilm and frozen for 24 hours at −20° C. On the following day, the membrane sediment was thawed and taken up in 5 mmol/l of ice-cold TRIS acetate buffer, 0.1% saponin (w/v) pH 7.0 (10 ml/g original fresh weight) and homogenized with 10 piston strokes at 500 rpm and then centrifuged for 20 minutes at 50,000 g and 4° C. The resulting supernatant was discarded and the sediment was taken up in a small volume in 5 mmol/l of TRIS acetate buffer pH 7.0 (about 2 ml/g original fresh weight) and again homogenized with 10 piston strokes at 500 rpm. After determination of the protein content, the membrane homogenate was adjusted to a protein concentration of 10 mg of protein/ml with 5 mmol/l TRIS acetate buffer pH 7.0, and was frozen in aliquots until testing.
For the receptor binding test, aliquots were thawed, diluted 1:10 with 5 mmol/l of TRIS acetate buffer pH 7.0, homogenized, while cooling with ice, with 10 piston strokes at 500 rpm using the Potter homogenizer (10 piston strokes at 500 rpm) and centrifuged for 60 minutes at 55,000 g and 4° C. The supernatant was decanted off and the membrane sediment was adjusted to a protein concentration of 1 mg/ml with 50 mmol/l of ice-cold TRIS acetate buffer pH 7.0 and again homogenized with 10 piston strokes at 500 rpm and maintained in suspension in an ice-bath while stirring with a magnetic stirrer. Of that membrane homogenate, 100 μl per 1 ml batch were used in the receptor binding test (0.1 mg protein/ml in the final batch).
In the binding test, 50 mmol/l of TRIS acetate buffer pH 7.0 were used as the buffer, and 1 nmol/l of (^3H)-MDL 105,519 (B. M. Baron et al. 1996) was used as the radioactive ligand. The proportion of non-specific binding was determined in the presence of 1 mmol/l of glycine.
In further batches, the compounds according to the invention were added in series of concentrations and the displacement of the radioactive ligand from its specific binding to the glycine binding site of the NMDA receptor channel was determined. The respective triplicate batches were incubated for 120 minutes at 4° C. and then harvested by means of filtration through glass fiber filter mats (GF/B) for determination of the radioactive ligand bonded to the membrane homogenate. […]

SMILES | Displacement (%, 10 μmol) [%] | Ki [µM] | inhibition at 10 µM [%] | binding to the glycine binding site of the NMDA ion channel (statement in words) (general statement in the description, no values)
COc1ccc(NC(C(=O)O)c2cccs2)cc1 (centres unmarked) [(4-methoxy-phenylamino)-thien-2-yl-acetic acid, reference compound] | – | – | – | bind selectively to the glycine binding site of the NMDA ion channel
CSCc1ccc(C(Nc2cc(Cl)cc(Cl)c2)C(=O)O)o1 (centres unmarked) [Example 106, (3,5-Dichloro-phenylamino)-(5-methylsulfanylmethyl-furan-2-yl)-acetic acid] | 65 | – | – | –
CSCc1ccc(C(Nc2cc(Cl)cc(Cl)c2)C(=O)O)o1.Cl (centres unmarked) [Example 106-HCl, (3,5-Dichloro-phenylamino)-(5-methylsulfanylmethyl-furan-2-yl)-acetic acid hydrochloride] | 91 | – | – | –
CSCc1ccc(C(Nc2cc(Cl)cc(Cl)c2)C(=O)O)o1.[Na] (centres unmarked) [Example 106-Na, (3,5-Dichloro-phenylamino)-(5-methylsulfanylmethyl-furan-2-yl)-acetic acid sodium] | 78 | 2.98 | – | –
O=C(O)C(Nc1cc(Cl)cc(Cl)c1)c1ccc(CS)o1 (centres unmarked) [Example 107, (3,5-Dichloro-phenylamino)-(5-mercaptomethyl-furan-2-yl)-acetic acid] | – | – | 101 | –
O=C(O)C(Nc1cc(Cl)cc(Cl)c1)c1ccc(CO)s1 (centres unmarked) [Example 109, (3,5-Dichloro-phenylamino)-(5-hydroxymethyl-thiophen-2-yl)-acetic acid] | – | – | 66 | –
CC(=O)SCc1ccc(C(Nc2cc(Cl)cc(Cl)c2)C(=O)O)o1 (centres unmarked) [Example 110, (5-Acetylsulfanylmethyl-furan-2-yl)-(3,5-dichloro-phenylamino)-acetic acid] | – | 0.12 | 104 | –
CC(=O)OCc1ccc(C(Nc2cc(Cl)cc(Cl)c2)C(=O)O)o1 (centres unmarked) [Example 123, (5-Acetoxymethylfuran-2-yl)-(3,5-dichlorophenylamino)-acetic acid] | – | 5.03 | 60 | –

Now from value to molecule, other results behind:

Displacement (%, 10 μmol) [%] | Ki [µM] | inhibition at 10 µM [%] | SMILES | binding to the glycine binding site of the NMDA ion channel (statement in words) (general statement in the description, no values)
– | – | 44 | CCc1ccc(C(Nc2cc(Cl)cc(Cl)c2)C(=O)O)s1 (centres unmarked) [Example 111, (3,5-Dichloro-phenylamino)-(5-ethyl-thiophen-2-yl)-acetic acid] | –
– | – | 99 | O=C(O)C(Nc1cccc(Cl)c1)c1ccc(CS)o1 (centres unmarked) [Example 113, (3-Chloro-phenylamino)-(5-mercaptomethyl-furan-2-yl)-acetic acid] | –
– | – | 45 | O=C(O)C(Nc1ccc(Cl)c(Cl)c1)c1ccc(CS)o1 (centres unmarked) [Example 114, (3,4-Dichloro-phenylamino)-(5-mercaptomethyl-furan-2-yl)-acetic acid] | –
– | – | 91 | CC(C)(C)c1ccc(C(Nc2cc(Cl)cc(Cl)c2)C(=O)O)o1 (centres unmarked) [Example 119-HCl, (5-tert-Butylfuran-2-yl)-(3,5-dichlorophenylamino)-acetic acid hydrochloride] | –
– | 0.47 | 103 | O=C(O)C(Nc1cc(Cl)cc(Cl)c1)c1ccc(CSSCc2ccco2)o1 (centres unmarked) [Example 120, (3,5-Dichlorophenylamino)-[5-(furan-2-ylmethyldisulfanylmethyl)-furan-2-yl]-acetic acid] | –
– | 0.29 | 106 | CSSCc1ccc(C(Nc2cc(Cl)cc(Cl)c2)C(=O)O)o1 (centres unmarked) [Example 121, (3,5-Dichlorophenylamino)-(5-methyldisulfanylmethyl-furan-2-yl)-acetic acid] | –
– | 5.03 | 63 | Cc1ccc(C(Nc2cc(Cl)cc(Cl)c2)C(=O)O)s1 (centres unmarked) [Example 125-Na, (3,5-Dichlorophenylamino)-(5-methylthiophen-2-yl)-acetic acid sodium salt] | –
– | 15.4 | 52 | Cc1csc(C(Nc2cc(Cl)cc(Cl)c2)C(=O)O)c1 (centres unmarked) [Example 126, (3,5-Dichlorophenylamino)-(4-methylthiophen-2-yl)-acetic acid] | –
– | 2.57 | 68 | O=C(O)C(Nc1cc(Cl)cc(Cl)c1)c1ccc(Cl)s1 (centres unmarked) [Example 127, (5-Chlorothiophen-2-yl)-(3,5-dichlorophenylamino)-acetic acid] | –
72 | – | – | O=C([O-])C(Nc1cc(Cl)cc(Cl)c1)c1ccc(Cl)s1.[Na+] (centres unmarked) [Example 127-Na, (3,5-Dichlorophenylamino)-(5-chlorothiophen-2-yl)-acetic acid sodium salt] | –
